Data taken from patent US20240368151A1, “NOVEL ERGOLINES AND METHODS OF TREATING MOOD DISORDERS” (priority 2021, published 2024).

Tests used:
[1] = Metabolic stability in mouse liver microsomes (MLM); assay type: in vitro ADME; conditions: mouse, pooled mouse liver microsomes, pH 7.4, MLM (CD-1), NADPH
Excerpt: MLM Stability Pooled MLM from CD-1 mice (BIOIVT M00501) were used.

5-HT1B receptor = 5-HT1B receptor (Homo sapiens (Human), UniProt P28222); test: cAMP accumulation agonist assay at 5-HT1B; assay type: cell-based
Experimental: Functional Assay at 5-HT1B. Agonist activity at 5-HT1B was determined using a cAMP accumulation protocol at WuXi AppTec (Hong Kong) Limited according to their standard protocols. Briefly, stably transfected cells were plated in an OptiPlate-384 well plate, incubated at RT for 60 mins, and cAMP standard solution (800 nM, 10 μL) was added to the blank well. Then, 10 μL detection reagent was added to each well, the plate incubated for 60 mins at RT, and the plate read using EnVision.

[2] = Metabolic stability in rat liver microsomes (RLM); assay type: in vitro ADME; conditions: both sexes, rat, pooled rat liver microsomes, pH 7.4, NADPH
5-HT2B receptor = 5-HT2B receptor (Homo sapiens (Human), UniProt P41595); test: FLIPR Ca^2+ flux agonist assay at 5-HT2B; assay type: cell-based; conditions: HEK293
Experimental: (§1) Functional Assays at 5-HT2A, 5-HT2B, and 5-HT1A. Agonist activity at 5-HT2A, 5-HT2B, and 5-HT1A receptors was determined using a FLIPR Ca^2+ flux assay at WuXi AppTec (Hong Kong) Limited according to their standard protocols. Briefly, stably transfected cells expressing the receptor of interest (HEK293 for 5-HT2A and 5-HT2B; CHO cells for 5-HT1A) were grown and plated in a 384 well plate and incubated at 37° C. and 5% CO2 overnight. A solution of 250 mM probenecid in 1 mL FLIPR assay buffer was prepared fresh. This was combined with a fluorescent dye (Fluo-4 Direct™) to make a final assay concentration of 2.5 mM. […] The fluorescent dye was then added to the assay plate along with assay buffer to a final volume of 40 μL. The cell plate was incubated for 50 min at 37° C. and 5% CO2 and placed into the FLIPR Tetra along with the compound plate. 10p L of references and compounds were then transferred from the compound plate into the cell plate and the fluorescent signal was read.

5-HT2A receptor = 5-HT2A receptor (Homo sapiens (Human), UniProt P28223); assay type: cell-based; conditions: Ca^2+ flux, HEK293
Experimental: as §1

Alpha1A receptor = Alpha1A receptor (Homo sapiens (Human), UniProt P35348); test: FLIPR Ca^2+ flux agonist assay at Alpha1A; assay type: cell-based
Experimental: Disclosed compounds were tested for agonist activity at several adrenergic (Alpha1A and Alpha2A) and dopamine (D1 and D2) receptor subtypes using Ca^2+ flux functional assays, with the results summarized in Table 6. Selectivity for the 5-HT2A receptor over these other targets varied depending on the specific target and compound.
Functional Assays at Adrenergic and Dopamine Receptors. Agonist activity at Alpha1A, Alpha2A, D1, and D2 receptors was determined using a FLIPR Ca^2+ flux assay at WuXi AppTec (Hong Kong) Limited according to their standard protocols. Briefly, stably transfected cells expressing the receptor of interest were grown and plated in a 384 well plate and incubated at 37° C. and 5% CO2 overnight. A solution of 250 mM probenecid in 1 mL FLIPR assay buffer was prepared fresh. This was combined with a fluorescent dye (Fluo-4 Direct™) to make a final assay concentration of 2.5 mM. Compounds were diluted 1:3.16 for 10 points and 750 nL was added to a 384 well compound plate using ECHO along with 30 μL assay buffer. The fluorescent dye was then added to the assay plate along with assay buffer to a final volume of 40 μL. The cell plate was incubated for 50 min at 37° C. and 5% CO2 and placed into the FLIPR Tetra along with the compound plate. 10 μL of references and compounds were then transferred from the compound plate into the cell plate and the fluorescent signal was read.

5-HT1A receptor = 5-HT1A receptor (Homo sapiens (Human), UniProt P08908); test: FLIPR Ca^2+ flux agonist assay at 5-HT1A; assay type: cell-based; conditions: CHO cells
Experimental: as §1

[3] = Metabolic stability in human liver microsomes (HLM); assay type: in vitro ADME; conditions: both sexes, human, pooled human liver microsomes, pH 7.4, NADPH
Excerpt: HLM Stability. Pooled HLM from adult male and female donors (Corning 452117) were used.

Sprague Dawley rats = test: Forced swim test (FST) in rats; assay type: in vivo, rat; conditions: rat FST, 20 mg/kg SC at 23.5 h, 5 h and 1 h before test swim; average of 3 independent experiments
Experimental: Compound 1 induced antidepressant-like effects in the forced swim test (FST) in rats with a 23.5-h pre-treatment time (FIG. 2).
Animals. Male Sprague Dawley rats, aged 9-10 weeks, were used in this experiment. Animals were housed in groups of 2 under controlled temperature (22±3° C.) and relative humidity (30-70%) conditions, with 12-hour light/dark cycles, and with ad libitum food and water. This study was carried out in strict accordance with the requirements of the Committee for the Purpose of Control and Supervision of Experiments on Animals (CPCSEA), India. All efforts were made to minimize suffering.
Drugs and Drug Administration. Compound 1 was synthesized as described above. Desipramine HCl was commercially obtained. The test compound, saline vehicle, and the positive control desipramine were administered subcutaneously (SC), with doses calculated based on the freebase. Normal saline was used as the vehicle. All compounds were administered at a volume of 5 mL/kg. The test compound and vehicle were administered 0.5 h after the start of the training swim (Swim 1) and 23.5 h before the test swim (Swim 2). Desipramine was administered 3 times, at 23.5 h, 5 h, and 1 h before the test swim (Swim 2), each time at a dose of 20 mg/kg. Group size was n=10 per treatment.
Forced Swim Test (FST). […] Rats were handled for about 2 min daily for the 5 days prior to the beginning of the experimental procedure. On the first day of the experiment (i.e., Day 0), post randomization, training swim sessions (Swim 1) were conducted between 12:00 and 18:00 h with all animals by placing rats in individual glass cylinders (46 cm tall×20 cm in diameter) containing 23-25° C. water 30 cm deep for 15 minutes. At the conclusion of Swim 1, animals were dried with paper towels, placed in heated drying cages for 15 minutes, and then returned to their home cages. Animals were then administered the appropriate drug or vehicle treatment(s), as described above. For clarity, a compound administration time of 23.5 h before Swim 2 means 0.5 h after the start of Swim 1 and 0.25 h after the completion of Swim 1 (i.e., immediately after return to the home cage). On Day 1 (i.e., 24 h after start of Swim 1), animals performed the test swim (Swim 2) for a period of 5 min but otherwise under the same conditions as Swim 1. During all swim sessions, the water was changed between each animal.
Behavioral scoring was conducted by observers who were blind to the treatment groups. Animals were continuously observed during Swim 2 and the total time spent engaging in the following behaviors was recorded: immobile, swimming, and climbing. A rat was judged to be immobile when it remained floating in the water without struggling and was making only those movements necessary to keep its head above water. A rat was judged to be swimming when it made active swimming motions, more than necessary to merely maintain its head above water (e.g., moving around in the cylinder). A rat was judged to be climbing when it made active movements with its forepaws in and out of the water, usually directed against the walls.
Statistical Analysis. The data points shown represent the mean±standard error of the mean (SEM). Analysis was performed using GraphPad Prism 6. Comparisons between groups were performed using the one-way analysis of variance (ANOVA), followed by Dunnett's test for comparisons to vehicle.
Additional disclosed compounds were tested in the forced swim test (FST) in rats according to the procedure described in Example 35.

Chain of 5-HT1B receptor (P28222 whole entry, looked up): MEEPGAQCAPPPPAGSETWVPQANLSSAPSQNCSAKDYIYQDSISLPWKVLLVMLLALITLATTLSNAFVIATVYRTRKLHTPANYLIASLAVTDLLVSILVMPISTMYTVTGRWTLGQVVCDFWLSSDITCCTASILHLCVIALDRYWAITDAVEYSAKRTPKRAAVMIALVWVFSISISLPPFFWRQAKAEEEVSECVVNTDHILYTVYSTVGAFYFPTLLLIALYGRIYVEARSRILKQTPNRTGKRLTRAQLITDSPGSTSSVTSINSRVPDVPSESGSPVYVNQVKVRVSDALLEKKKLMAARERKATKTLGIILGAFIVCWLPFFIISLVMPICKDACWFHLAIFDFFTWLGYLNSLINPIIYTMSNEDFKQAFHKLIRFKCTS
Chain of 5-HT2B receptor (P41595 whole entry, looked up): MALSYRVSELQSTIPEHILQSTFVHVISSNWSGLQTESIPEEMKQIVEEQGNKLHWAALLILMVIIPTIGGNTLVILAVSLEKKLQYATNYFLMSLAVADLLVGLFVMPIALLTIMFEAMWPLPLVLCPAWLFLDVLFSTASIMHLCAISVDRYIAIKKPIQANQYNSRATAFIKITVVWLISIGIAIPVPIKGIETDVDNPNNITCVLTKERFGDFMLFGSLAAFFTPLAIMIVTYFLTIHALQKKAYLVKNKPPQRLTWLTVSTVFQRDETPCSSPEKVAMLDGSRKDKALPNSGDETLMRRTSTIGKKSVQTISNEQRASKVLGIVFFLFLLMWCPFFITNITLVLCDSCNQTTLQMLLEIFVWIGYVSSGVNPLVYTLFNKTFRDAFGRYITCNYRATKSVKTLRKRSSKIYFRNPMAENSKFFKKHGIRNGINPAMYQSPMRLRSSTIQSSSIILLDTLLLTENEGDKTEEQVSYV
Chain of Alpha1A receptor (P35348 whole entry, looked up): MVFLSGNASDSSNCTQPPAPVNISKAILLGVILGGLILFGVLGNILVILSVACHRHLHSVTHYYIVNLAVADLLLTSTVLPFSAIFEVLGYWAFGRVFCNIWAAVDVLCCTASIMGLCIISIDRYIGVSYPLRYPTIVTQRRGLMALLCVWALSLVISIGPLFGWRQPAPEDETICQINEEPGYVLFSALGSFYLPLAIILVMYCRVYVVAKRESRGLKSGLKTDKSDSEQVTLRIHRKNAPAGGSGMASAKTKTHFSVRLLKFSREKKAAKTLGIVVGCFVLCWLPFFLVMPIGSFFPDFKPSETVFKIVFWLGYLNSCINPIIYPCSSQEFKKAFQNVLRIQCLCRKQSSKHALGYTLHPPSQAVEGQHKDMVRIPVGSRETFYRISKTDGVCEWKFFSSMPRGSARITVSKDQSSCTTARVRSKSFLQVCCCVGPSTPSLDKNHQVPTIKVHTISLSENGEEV

SMILES	half-life at 1 μM [1] [min]	5-HT1B % Act @ Max Dose (5-HT1B receptor) [%]	half-life at 1 μM [2] [min]	5-HT2B % Act @ Max Dose (5-HT2B receptor) [%]	5-HT2A % Act @ Max Dose (5-HT2A receptor) [%]	Alpha 1A % Act @ Max Dose (Alpha1A receptor) [%]	5-HT1A % Act @ Max Dose (5-HT1A receptor) [%]	half-life at 1 μM [3] [min]	Time Immobile (Sprague Dawley rats) [s]
CCN(CC)C(=O)[C@@H]1C=C2c3cccc4[nH]cc(c34)C[C@H]2N(CCC(F)(F)F)C1 [Compound 12, (6aR,9R)-N,N-diethyl-7-(3,3,3-trifluoropropyl)-4,6,6a,7,8,9-hexahydroindolo[4,3-fg]quinoline-9-carboxamide]	2.1	95.51	5.9	29.55	78.69	2.08	71.42	13.5	–
CCN(CC)C(=O)[C@@H]1C=C2c3cccc4[nH]cc(c34)C[C@H]2N(CC2CC2)C1 [Compound 13, (6aR,9R)-N,N-diethyl-7-(Cyclopropylmethyl)-4,6,6a,7,8,9-hexahydroindolo[4,3-fg]quinoline-9-carboxamide]	3.7	90.43	27.7	91.75	92.60	80.79	83.08	21.1	–
CCN(CC)C(=O)[C@@H]1C=C2c3cccc4[nH]cc(c34)C[C@H]2N(CCc2cccc(OC)c2)C1 [Compound 20, (6aR,9R)-N,N-diethyl-7-(3-methoxyphenethyl)-4,6,6a,7,8,9-hexahydroindolo[4,3-fg]quinoline-9-carboxamide]	0.9	34.59	1.2	3.60	77.19	–	3.85	2.1	–
CCN(CC)C(=O)[C@@H]1C=C2c3cccc4[nH]cc(c34)C[C@H]2N(CCc2ccc(OC)cc2)C1 [Compound 21, (6aR,9R)-N,N-diethyl-7-(4-methoxyphenethyl)-4,6,6a,7,8,9-hexahydroindolo[4,3-fg]quinoline-9-carboxamide]	1.9	79.13	4.3	1.73	51.23	–	8.2	3.8	–
CCN(CC)C(=O)[C@@H]1C=C2c3cccc4[nH]cc(c34)C[C@H]2N(Cc2ccccn2)C1 [Compound 22, (6aR,9R)-N,N-diethyl-7-(pyridin-2-ylmethyl)-4,6,6a,7,8,9-hexahydroindolo[4,3-fg]quinoline-9-carboxamide]	9.2	89.15	13.2	7.74	64.47	–	57.33	23.8	–
CCN(CC)C(=O)[C@@H]1C=C2c3cccc4[nH]cc(c34)C[C@H]2N(CCc2ccccn2)C1 [Compound 23, (6aR,9R)-N,N-diethyl-7-(2-(pyridin-2-yl)ethyl)-4,6,6a,7,8,9-hexahydroindolo[4,3-fg]quinoline-9-carboxamide]	1.8	83.68	4.2	12.50	85.397	–	46.19	7.2	–
CNCCCN1c2ccccc2CCc2ccccc21 [Desipramine, reference compound]	–	–	–	–	–	–	–	–	60.93
